Consider five molecules from PMC5539068, “Structural optimization and evaluation of novel 2-pyrrolidone-fused (2-oxoindolin-3-ylidene)methylpyrrole derivatives as potential VEGFR-2/PDGFRβ inhibitors” (Chemistry Central Journal, 2017).

Structures are written as SMILES.

The test system of data set [1] is HCT116 cells. As to conditions: VEGFR-1/2 inhibitor; cited from earlier work.
In data set [2] the test system is HUVEC cells. The data set can be described thus: In-vitro VEGF-induced Matrigel tube formation assay. The format is cell-based, human. As to conditions: for IC50: Homo sapiens, HUVEC, VEGF 10 ng/ml, Matrigel, 6 h, read-out: IC50 Area (in vitro tube formation); for potency in inhibiting in vitro tube formation relative to sunitinib in terms of IC50: versus sunitinib. The procedure: The in vitro tube formation assay was assessed using ibidi μ-Slides (15-well, ibidi GmbH, Martinsried, Germany) in accordance with manufacturer’s protocol. Briefly, growth factor reduced Matrigel (10 μl) (Sigma, St. Louis MO) was added to the inner well of ibidi μ-Slides, and incubated at 37 °C for 1 h. […] 10,000 HUVEC cells in 50 μl of above growth medium was added to Matrigel (Sigma, St. Louis MO, USA) coated ibidi μ-Slides. After 6 h of incubation at 37 °C, the supernatant was discarded, and 50 μl of serum-free medium with diluted calcein AM (6.25 μg/ml) was added to above ibidi μ-Slides. After incubation in the dark at room temperature for 30 min, the μ-Slides were washed with PBS (50 μl) and fluorescence pictures were taken at 485 nm with a Leica DM1000 LED microscope (Leica Microsystems, Wetzlar, Hessen, Germany).

Data set [3] concerns Detroit 551 cells. As to conditions: 10 μM, 6 h, WST-8. The method, then: (§1) Cells were seeded at 5000 cells/well on a 96-well plate for 24 h. The indicated compounds in different concentrations (100 μl) were added to cells. After 6 h, old medium was aspirated, and the cells were washed three times with PBS. WST-8 (Dojindo, Rockville, MD, USA) (10 µl) was added to each well, and the absorbance of the plate was recorded at 450 nm on a microplate spectrophotometer (Thermo Fisher Scientific, Waltham, MA, USA).

In data set [4] the test system is HCT116 cells. As to conditions: 10 μM, 6 h, WST-8. The procedure: as §1
Data set [5] relates to 786-O cells. The data set can be described thus: Cell proliferation assay (MTT), 786-O. As to conditions: for IC50: Homo sapiens, 786-0, 72 h, read-out: IC50 786-O.
Protocol: (§2) Serial dilutions of indicated compounds were added and incubated for additional 72 h. At the end of the incubation, cell viability was determined by the 3-(4,5-dimethylthiazol-2-yl)-2,5-diphenyl tetrazolium bromide (MTT) assay. The MTT formazan crystals formed were dissolved in DMSO, and the absorbance at 570 nm was recorded using a microplate spectrophotometer (Thermo Fisher Scientific, Waltham, MA, USA) [46].
The subject of data set [6] is HCT116 cells. The data set can be described thus: Cell proliferation assay (MTT), HCT116. As to conditions: for IC50: Homo sapiens, HCT-116, 72 h, read-out: IC50 HCT116.
Protocol: as §2
Data set [7] has as its system NCI-H460 cells. The data set can be described thus: Cell proliferation assay (MTT), NCI-H460. As to conditions: for IC50: Homo sapiens, NCI-H460, 72 h, read-out: IC50 NCI-H460.
Protocol: as §2
The target in data set [8] is PDGFRβ (Homo sapiens, UniProt P09619). The data set can be described thus: In-vitro kinase assay (HotSpot, 33P), PDGFRβ.
PDGFRβ, sequence (P09619 33-1106): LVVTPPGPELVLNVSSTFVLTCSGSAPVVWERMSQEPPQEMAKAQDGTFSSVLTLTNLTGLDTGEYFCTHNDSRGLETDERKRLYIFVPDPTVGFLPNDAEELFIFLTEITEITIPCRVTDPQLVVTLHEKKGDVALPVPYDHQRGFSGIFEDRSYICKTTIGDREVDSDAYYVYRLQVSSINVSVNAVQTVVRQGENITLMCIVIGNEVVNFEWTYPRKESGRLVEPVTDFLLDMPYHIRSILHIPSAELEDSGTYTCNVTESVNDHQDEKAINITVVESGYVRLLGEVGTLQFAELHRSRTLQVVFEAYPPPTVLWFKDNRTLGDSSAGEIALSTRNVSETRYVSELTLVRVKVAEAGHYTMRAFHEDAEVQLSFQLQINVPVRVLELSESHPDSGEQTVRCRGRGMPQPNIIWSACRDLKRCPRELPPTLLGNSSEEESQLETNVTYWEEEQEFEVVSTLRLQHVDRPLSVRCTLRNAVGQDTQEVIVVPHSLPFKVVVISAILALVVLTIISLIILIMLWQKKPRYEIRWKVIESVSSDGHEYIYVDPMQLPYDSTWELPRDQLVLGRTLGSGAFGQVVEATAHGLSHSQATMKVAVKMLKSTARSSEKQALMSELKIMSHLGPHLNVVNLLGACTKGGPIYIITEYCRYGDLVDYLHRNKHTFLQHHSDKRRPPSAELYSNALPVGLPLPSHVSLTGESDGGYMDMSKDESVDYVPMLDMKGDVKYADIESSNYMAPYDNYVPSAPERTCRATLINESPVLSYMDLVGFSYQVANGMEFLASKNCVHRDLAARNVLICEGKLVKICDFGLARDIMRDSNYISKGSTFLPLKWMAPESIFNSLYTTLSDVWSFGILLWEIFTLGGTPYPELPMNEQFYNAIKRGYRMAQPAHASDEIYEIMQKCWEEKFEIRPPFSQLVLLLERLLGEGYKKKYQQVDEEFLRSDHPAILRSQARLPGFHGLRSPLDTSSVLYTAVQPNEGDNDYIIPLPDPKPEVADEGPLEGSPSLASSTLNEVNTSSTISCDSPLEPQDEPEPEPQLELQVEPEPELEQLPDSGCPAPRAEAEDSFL
The target of data set [9] is VEGFR-2 (Homo sapiens, UniProt P35968). The data set can be described thus: In-vitro kinase assay (HotSpot, 33P), VEGFR-2. As to conditions: for inhibition at 0.08 µM: read-out: % inhibition of VEGFR-2 at 80 nM.
VEGFR-2, sequence (P35968 20-1356): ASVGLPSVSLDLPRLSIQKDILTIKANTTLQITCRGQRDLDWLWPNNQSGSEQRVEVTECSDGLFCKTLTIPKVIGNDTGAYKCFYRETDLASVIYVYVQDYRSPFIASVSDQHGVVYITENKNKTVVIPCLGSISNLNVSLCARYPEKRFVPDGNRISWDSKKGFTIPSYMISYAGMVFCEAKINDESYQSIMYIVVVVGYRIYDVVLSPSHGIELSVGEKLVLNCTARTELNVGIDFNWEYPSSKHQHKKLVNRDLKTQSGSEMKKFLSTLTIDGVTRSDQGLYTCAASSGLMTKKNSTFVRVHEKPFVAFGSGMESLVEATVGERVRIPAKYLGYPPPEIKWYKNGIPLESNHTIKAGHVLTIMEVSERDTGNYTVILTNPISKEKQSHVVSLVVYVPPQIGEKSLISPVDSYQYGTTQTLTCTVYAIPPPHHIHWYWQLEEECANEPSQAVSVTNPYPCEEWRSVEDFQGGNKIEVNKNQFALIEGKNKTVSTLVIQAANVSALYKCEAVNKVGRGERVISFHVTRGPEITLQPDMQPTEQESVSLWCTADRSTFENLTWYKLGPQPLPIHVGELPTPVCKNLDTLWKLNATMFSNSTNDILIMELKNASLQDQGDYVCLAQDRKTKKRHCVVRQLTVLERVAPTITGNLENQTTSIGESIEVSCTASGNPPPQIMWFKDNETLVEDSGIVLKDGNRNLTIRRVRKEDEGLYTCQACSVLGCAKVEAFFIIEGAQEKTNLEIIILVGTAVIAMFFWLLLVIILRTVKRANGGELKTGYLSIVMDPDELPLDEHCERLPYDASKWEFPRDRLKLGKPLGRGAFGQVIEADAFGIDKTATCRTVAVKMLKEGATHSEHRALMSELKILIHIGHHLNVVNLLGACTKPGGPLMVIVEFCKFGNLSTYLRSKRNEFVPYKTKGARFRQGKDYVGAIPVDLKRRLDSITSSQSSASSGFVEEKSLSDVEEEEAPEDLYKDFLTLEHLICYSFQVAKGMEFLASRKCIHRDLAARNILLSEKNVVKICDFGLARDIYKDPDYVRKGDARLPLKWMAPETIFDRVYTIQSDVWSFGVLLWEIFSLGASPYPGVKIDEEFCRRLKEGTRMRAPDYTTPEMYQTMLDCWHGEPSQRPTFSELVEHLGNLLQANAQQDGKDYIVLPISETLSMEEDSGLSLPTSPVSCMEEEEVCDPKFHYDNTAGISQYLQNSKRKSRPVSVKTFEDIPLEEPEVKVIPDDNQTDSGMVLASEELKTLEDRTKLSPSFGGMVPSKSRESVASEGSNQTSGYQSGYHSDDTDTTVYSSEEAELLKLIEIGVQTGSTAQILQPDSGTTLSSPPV
Protocol: Next, the VEGFR-2 phosphorylation inhibitory activities of the newly synthesized compounds were evaluated.
(§3) Briefly, specific kinase and substrate and required cofactors were prepared in reaction buffer. Test compounds were added to the reaction and after 20 min a mixture of ATP (Sigma, St. Louis MO, USA) and ^33P ATP (Perkin Elmer, Waltham MA, USA) was added to make a final concentration of 10.0 μM. Reactions were stood at room temperature for 120 min, and then the reactions were spotted onto a P81 ion exchange filter paper (Whatman Inc., Piscataway, NJ, USA). Unbound phosphate was removed by extensive washing of filters in 0.1% phosphoric acid. Kinase activity data was reported as the percent remaining kinase activity in test compounds compared to the solvent control dimethyl sulfoxide (DMSO).
Data set [10] concerns HCT116 cells. The data set can be described thus: Cell cycle analysis by image cytometry (DAPI). As to conditions: 24 h, preliminary.
Protocol: Cell cycle profiles of HCT116 cells were determined with an NC-3000 image cytometer (ChemoMetec, Allerod, Denmark) in accordance with manufacturer’s protocol. Briefly, cells were seeded at 200,000 cells/well on a 6-well plate for 24 h. […] After incubation for 24 h, 100,000 cells were harvested and centrifuged at 400 g at room temperature for 5 min, washed once with PBS (50 μM), and resuspended in lysis buffer (50 μl) (ChemoMetec, Allerod, Denmark) containing 10 μg/ml of 2-(4-amidinophenyl)-1H-indole-6-carboxamidine (DAPI, ChemoMetec, Allerod, Denmark). […] The cellular fluorescence was measured with an NC-3000 image cytometer using NC-SlideA8 (ChemoMetec, Allerod, Denmark). The NC-3000 software (ChemoMetec, Allerod, Denmark) was used for image acquisition, image analysis and quantification, and data visualization.
Data set [11] addresses T1, Aurora A (Homo sapiens, UniProt O14965).
T1 sequence (O14965 1-403): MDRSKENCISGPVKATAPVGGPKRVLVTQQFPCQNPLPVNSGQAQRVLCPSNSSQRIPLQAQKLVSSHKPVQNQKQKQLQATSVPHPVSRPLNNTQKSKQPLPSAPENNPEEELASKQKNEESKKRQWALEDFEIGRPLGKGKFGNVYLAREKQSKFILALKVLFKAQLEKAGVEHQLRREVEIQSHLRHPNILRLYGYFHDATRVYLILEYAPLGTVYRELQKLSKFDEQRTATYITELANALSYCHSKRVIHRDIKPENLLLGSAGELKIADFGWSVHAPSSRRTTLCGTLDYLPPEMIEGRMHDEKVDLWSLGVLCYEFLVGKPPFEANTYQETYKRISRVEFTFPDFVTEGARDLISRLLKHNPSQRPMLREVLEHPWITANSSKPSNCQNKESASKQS
The data set can be described thus: In-vitro kinase assay (HotSpot, 33P), Aurora A. As to conditions: ATP 10.0 μM; for % inhibition of Aurora A at 1.0 μM: 1.0 μM compound; for inhibition at 1 µM: read-out: % inhibition of Aurora A at 1.0 μM, 1.0 μM compound.
Protocol: as §3

Data set [12] relates to Detroit 551 cells. The data set can be described thus: Cell proliferation assay (MTT), normal fibroblast Detroit 551. As to conditions: Homo sapiens, Detroit 551, 72 h, read-out: IC50 Detroit 551.
Protocol: as §2
Data set [13] is described as follows: Preliminary pharmacokinetic studies. As to conditions: no data shown.
The subject of data set [14] is patients with advanced colorectal cancer. Further details: method as in earlier work. As to conditions: Phase IIb, cited from earlier work.

As to `O=C(Nc1cccc(C(F)(F)F)c1)c1ccccc1NCc1ccncc1` [AAL993], the “proliferation of HCT116 cells” value in [1] is “significantly decreases proliferation”.

As for `CCN(CC)CCN1Cc2[nH]c(/C=C3\C(=O)Nc4ccc(S(=O)(=O)N(CCCl)CCCl)cc43)c(C)c2C1=O` [Compound 7, (Z)-N,N-Bis(2-chloroethyl)-3-((5-(2-(diethylamino)ethyl)-3-methyl-4-oxo-1,4,5,6-tetrahydropyrrolo[3,4-b]pyrrol-2-yl)methylene)-2-oxoindoline-5-sulfonamide], the IC50 in [2] was 760 ± 110 nM; in [5], greater than 10000 nM; in data set [6] it was 3650 ± 190 nM; in data set [7] it was greater than 10000 nM; in data set [8], 63.2 nM; in data set [9] it was 23.7 nM. The IC50 in data set [12] was found to be 6060 ± 400 nM. Besides, the “potency in inhibiting in vitro tube formation relative to sunitinib in terms of IC50” value in [2] is given as “twofold higher”. Besides, the “acute cytotoxicity, Detroit 551” value in data set [3] is on record as “neither our compounds nor sunitinib had acute cytotoxicity”. In addition, the “acute cytotoxicity, HCT116” value in data set [4] is reported as “neither our compounds nor sunitinib had acute cytotoxicity”. Besides, the “selective index (SI) 786-O” value in [5] (versus Detroit 551) is reported as less than 0.61. Moreover, the “selective index (SI) HCT116” value in [6] (versus Detroit 551) is on record as 1.66. The “selective index (SI) NCI-H460” value in data set [7] (versus Detroit 551) is listed as less than 0.61. In addition, the inhibition at 0.08 µM in data set [9] stood at 46%. The “cell cycle profile effect” value in data set [10] (5.0 μM) was “increase in polyploid cells”. Also, the “% inhibition of Aurora A at 1.0 μM” value in data set [11] is on record as 94.4%. In data set [11], the inhibition at 1 µM amounted to 92.9%.

With `CCN(CC)CCN1Cc2[nH]c(/C=C3\C(=O)Nc4ccc(O)cc43)c(C)c2C1=O` [Compound 14, (Z)-3-((5-(2-(diethylamino)ethyl)-3-methyl-4-oxo-1,4,5,6-tetrahydropyrrolo[3,4-b]pyrrol-2-yl)methylene)-5-hydroxyindolin-2-one], the melting point is 240 to 242 °C. Moreover, in [2], the IC50 was 620 ± 70 nM and the “potency in inhibiting in vitro tube formation relative to sunitinib in terms of IC50” value is given as “roughly 2.5 fold”. In [13], the “preliminary results in pharmacokinetic studies” value is “satisfactory”. Moreover, the IC50 in data set [5] was greater than 10000 nM. Moreover, the IC50 in data set [6] turned out to be 2830 ± 400 nM. For the same molecule, in [7], the IC50 is greater than 10000 nM. The midpoint of inhibition in [8], the IC50, lay at 28.5 nM. For the same molecule, in [9], the IC50 is 25.9 nM and the inhibition at 0.08 µM was 58%. Further, in data set [10] (3.0 μM), the “cell cycle profile effect” value was “G0/G1 cell cycle arrest”. The inhibition at 1 µM in data set [11] came to 93.6%. Besides, the IC50 in data set [12] is greater than 10000 nM.

`CCN(CC)CCN1Cc2[nH]c(/C=C3\C(=O)Nc4ccc(S)cc43)c(C)c2C1=O` [Compound 15, (Z)-3-((5-(2-(diethylamino)ethyl)-3-methyl-4-oxo-1,4,5,6-tetrahydropyrrolo[3,4-b]pyrrol-2-yl)methylene)-5-mercaptoindolin-2-one] showed a melting point of 257 to 260 °C. In addition, the IC50 in data set [2] turned out to be 530 ± 110 nM. Further, the “preliminary results in pharmacokinetic studies” value in data set [13] is recorded as “satisfactory”. Further, the IC50 in data set [5] was greater than 10000 nM. In addition, in data set [6], the IC50 was 2340 ± 200 nM. The IC50 in data set [7] is greater than 10000 nM. In [8], half-maximal inhibition (IC50) required 12.1 nM. In [9], the IC50 stood at 14.6 nM and the inhibition at 0.08 µM stood at 57%. Moreover, the “cell cycle profile effect” value in data set [10] (3.0 μM) is recorded as “increase in tetraploid cells”. In [11], the “% inhibition of Aurora A at 1.0 μM” value is 96.4% and the inhibition at 1 µM is 93.6%. In addition, the IC50 in [12] is greater than 10000 nM.

`CCN(CC)CCN1CCc2[nH]c(/C=C3\C(=O)Nc4ccc(F)cc43)c(C)c2C1=O` [famitinib]: the “progression free survival (PFS)” value in [14] (compared to placebo) is given as “significantly improved progression free survival (PFS)”. In data set [14], the toxicity entry is listed as “manageable”.
